From ChEMBL document CHEMBL1268854, “A Bisindole Alkaloid with Hedgehog Signal Inhibitory Activity from the Myxomycete Perichaena chrysosperma” (J Nat Prod, 2010) come the findings set out here.

The nature of test [1]: Cytotoxicity against mouse C3H10T1/2 cells after 24 hrs. It is filed as cell-based. Particulars: C3H 10T1/2, 24 h.
Test [2] deals with DU-145. The experiment in a line: Cytotoxicity against human DU145 cells after 24 hrs. As to conditions: DU-145, 24 h. It counts as functional, cell-based.
For test [3], the system named is PANC-1. Kind of test: Cytotoxicity against human PANC1 cells after 24 hrs. It is filed as functional, cell-based. As to conditions: PANC-1, 24 h.
Test [4] is described as follows: Inhibition of hedgehog signaling pathway in human HaCaT cells assessed as inhibition of GLI1-mediated transcriptional activity. It is filed as cell-based.

As a reminder, the IC50 is the concentration at which inhibition is half-maximal. Turning to `COC1NC(=O)c2c1c1c3ccccc3[nH]c1c1[nH]c3cc(O)ccc3c21` (centres undefined), the IC50 in test [1] was more than 14 µM; in test [2] it was 4.2 µM; in test [3], 5 µM; in test [4] it was 4.6 µM.
